The source of these data is patent US11773127B2, “Compounds and methods for treating bacterial infections” (Washington University, priority 2017, dated 2023).

The test addresses T1, FmlHLD (Escherichia coli, UniProt P77588).
T1 construct: 6xHis (C); made in house; host or cells: E. coli C600, periplasm, pTRC99a
The test can be described thus: biochemical. Format: binding, E. coli. The following applies: for inhibitory potency against FmlH, in words: ELISA-based competition assay; for potency relative to matched pair Gal/GalNAc derivative: 2038 vs 2043, 2050 vs 3029. On the procedure:
Thereafter, wells were incubated with 200 μl blocking buffer (PBS+1% BSA) for 2 hours at 23° C., followed by incubation with 100 μl biotinylated FmlHLD diluted in blocking buffer to 20 μg/ml in the presence or absence of the tested compounds for 1 hr at 23° C. After washing 3× with PBS+0.05% TWEEN-20, 100 μl Streptavidin-HRP conjugate (BD Biosciences; 1:2000 dilution in blocking buffer) was added to each well for 1 hr at 23° C. After a final round of washing, plates were developed with 100 μl Tetramethylbenzidine (TMB, BD Biosciences) substrate, quenched within 1-2 min with 50 μl […], and absorbance measured at 450 nm.
Select top hit compounds and few low-scoring analogs from the virtual screening, as well as synthetic galactosides, were tested in the ELISA-based competition assay for their ability to inhibit binding of FmlHLD to ds-BSM. The ELISA assay was performed using the protocol described in Example 18. […] All compounds were tested at 100 μM; a subset was tested at 10 μM; and the strongest subset was additionally tested at 1 μM. […] Percent inhibition (PI) values are reported as the mean with standard error of the mean for galactosides tested at 100 μM (PI100), 10 μM (PI10), and 1 μM (PI1) in the ELISA-based competition assay. […] The “thio” designation indicates a sulfur linkage between the sugar and the aglycone group, the “phospho” designation indicates a phosphate group attached the C6-hydroxyl group on the sugar, and the “uro” designation indicates galacturonide as the sugar.
The ELISA assay was performed using the protocol described in Example 18. All compounds were tested at 1 μM and a subset was additionally tested at 100 nM. Average percent inhibition (PI) values are reported for compounds tested at 1 μM (PI1) and 100 nM (PI0.1).
Briefly, 1 μg bovine submaxillary mucin (Sigma) in 100 uL PBS were incubated with Immulon 4HBX 96-well plates overnight prior to treatment with 1 mU Arthrobacter ureafaciens sialidase for 1 hour at 37° C. to remove terminal sialic acid sugars. Wells were then blocked with 200 μL PBS+1% BSA for 2 hours at room temperature. Biotinylated FmlH^LD was diluted to 20 μg/mL in blocking buffer and incubated in the presence or absence of compounds serially diluted 2× down eight rows for 1 hour at room temperature. Wells were washed three times with PBS 0.05% TWEEN-20 then incubated with 100 μL of streptavidin-HRP conjugate (BD Biosciences; 1:2,000 dilution in blocking buffer) for one hour. After three additional PBS+0.05% TWEEN washes, plates were developed with 100 μL of tetramethylbenzidine (BD Biosciences) substrate and quenched with 50 μL of 1 M H2SO4. Total bound portion concentration was measured by the absorbance at 450 nm. IC50s were determined using the Graphpad Prism software.
The compounds synthesized herein were tested in the ELISA-based competition assay for their ability to inhibit binding of FmlHLD to ds-BSM. The ELISA assay was performed using the protocol described in Example 18. Compounds were tested at […], 1 μM, and 100 nM. as indicated on the table. […] ND means the corresponding value was not determined for this summary (but may be available elsewhere in the Examples).
For orientation: An ELISA detects its analyte on a solid surface through an enzyme-linked reagent.

Setting [1] is: IC50 (μM), Table 5, Gal and GalNAc inhibition of FmlH.
The mark [2] stands for this setting: read-out: % Inhibition at [μM] [1], compound at 1 μM, inhibition of FmlHLD binding to ds-BSM.
[3] abbreviates: read-out: PI(1) (average percent inhibition), compound at 1 μM, Table 4.
[4] abbreviates: IC50, inhibition of FmlHLD binding to ds-BSM.
The mark [5] stands for this setting: read-out: % Inhibition at [μM] [0.1], compound at 0.1 μM (100 nM), inhibition of FmlHLD binding to ds-BSM.
Where [6] appears, read: read-out: PI (0.1) (average percent inhibition), compound at 100 nM, Table 4.

Like-named read-outs stand apart in the source and are kept apart here.

T1 sequence (P77588 25-182): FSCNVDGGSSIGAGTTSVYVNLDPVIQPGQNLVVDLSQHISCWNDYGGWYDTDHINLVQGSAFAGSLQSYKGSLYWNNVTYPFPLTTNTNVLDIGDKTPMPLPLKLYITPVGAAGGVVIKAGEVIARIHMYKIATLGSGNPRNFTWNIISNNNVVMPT

What is called IC50 is the concentration at which inhibition is half-maximal. Broadly, the inhibition is the drop in the measured response relative to a control, in per cent. As to `CC(=O)N[C@H]1[C@H](Oc2ccccc2-c2cccc(C(=O)N(C)C)c2)O[C@H](CO)[C@H](O)[C@@H]1O` [AM2032, 2′-(((2S,3R,4R,5R,6R)-3-acetamido-4,5-dihydroxy-6-(hydroxymethyl)tetrahydro-2H-pyran-2-yl)oxy)-N,N-dimethyl-[1,1′-biphenyl]-3-carboxamide], the “inhibitory potency against FmlH, in words” value (shortened to “inhibitory potency”) was “equal or slightly reduced potency”. For the same compound, under setting [1], the IC50 was 3.13 µM. Moreover, the inhibition at 1 µM under setting [2] is -3.61%. Also, the inhibition at 1 µM under setting [3] is -3.61%.
For `CC(=O)N[C@H]1[C@H](Oc2ccccc2-c2cccc(C(N)=O)c2)O[C@H](CO)[C@H](O)[C@@H]1O` [AM2033, 2′-(((2S,3R,4R,5R,6R)-3-acetamido-4,5-dihydroxy-6-(hydroxymethyl)tetrahydro-2H-pyran-2-yl)oxy)-[1,1′-biphenyl]-3-carboxamide], the “inhibitory potency” value is on record as “equal or slightly reduced potency”. The same compound showed an IC50 under setting [1] of 1.65 µM. Further, under setting [2], the inhibition at 1 µM was found to be 3.52%. In addition, the inhibition at 1 µM under setting [3] came out at 3.52%.
As for `CC(=O)N[C@H]1[C@H](Oc2ccccc2-c2cccc(C#N)c2)O[C@H](CO)[C@H](O)[C@@H]1O` [AM2035, N-((2S,3R,4R,5R,6R)-2-((3′-cyano-[1,1′-biphenyl]-2-yl)oxy)-4,5-dihydroxy-6-(hydroxymethyl)tetrahydro-2H-pyran-3-yl)acetamide], the “inhibitory potency” value is listed as “equal or slightly reduced potency”. Half-maximal inhibition under setting [1] (IC50) was put at 0.97 µM. For the same compound, the inhibition at 1 µM under setting [2] was determined as 20.9%. Also, under setting [3], the inhibition at 1 µM amounted to 20.9%.
As for `CC(=O)N[C@H]1[C@H](Oc2ccccc2-c2cccc(C(F)(F)F)c2)O[C@H](CO)[C@H](O)[C@@H]1O` [AM2037, N-((2S,3R,4R,5R,6R)-4,5-dihydroxy-6-(hydroxymethyl)-2-((3′-(trifluoromethyl)-[1,1′-biphenyl]-2-yl)oxy)tetrahydro-2H-pyran-3-yl)acetamide], the “inhibitory potency” value is on record as “equal or slightly reduced potency”. In addition, the IC50 under setting [1] was 1.51 µM. The inhibition at 1 µM under setting [2] came to 15.7%. Moreover, under setting [3], the inhibition at 1 µM is 15.7%.
As to `CC(=O)N[C@H]1[C@H](Oc2ccccc2-c2cccc(NS(C)(=O)=O)c2)O[C@H](CO)[C@H](O)[C@@H]1O` [AM2038, N-((2S,3R,4R,5R,6R)-4,5-dihydroxy-6-(hydroxymethyl)-2-((3′-(methylsulfonamido)-[1,1′-biphenyl]-2-yl)oxy)tetrahydro-2H-pyran-3-yl)acetamide], the “potency relative to matched pair Gal/GalNAc derivative” value is “about 5 fold”. Under setting [1], this compound gave a concentration for half-maximal inhibition (IC50) of 0.23 µM. For the same compound, the IC50 under setting [4] was determined as 0.271 µM. Also, the “greater potency than 29β-NAc” value (IC50 ratio) was 3 fold. Besides, under setting [5], the inhibition at 0.1 µM came out at 16.5%. Under setting [2], the inhibition at 1 µM turned out to be 81.4%. Moreover, under setting [6], the inhibition at 0.1 µM came to 16.5%. Further, the inhibition at 1 µM under setting [3] turned out to be 81.4%.
With `CNC(=O)c1cccc(-c2ccccc2O[C@@H]2O[C@H](CO)[C@H](O)[C@H](O)[C@H]2O)c1` [AM2042, N-methyl-2′-(((2S,3R,4S,5R,6R)-3,4,5-trihydroxy-6-(hydroxymethyl)tetrahydro-2H-pyran-2-yl)oxy)-[1,1′-biphenyl]-3-carboxamide], the inhibition at 0.1 µM was 0% under setting [5] and 0% under setting [6]. Moreover, the inhibition at 1 µM is, setting by setting: under setting [2], 16.6%; under setting [3], 16.6%.
Regarding `CS(=O)(=O)Nc1cccc(-c2ccccc2O[C@@H]2O[C@H](CO)[C@H](O)[C@H](O)[C@H]2O)c1` [AM2043, N-(2′-(((2S,3R,4S,5R,6R)-3,4,5-trihydroxy-6-(hydroxymethyl)tetrahydro-2H-pyran-2-yl)oxy)-[1,1′-biphenyl]-3-yl)methanesulfonamide], the “inhibitory potency” value is recorded as “loss in activity relative to 29β-NAc”. The same compound came in with an IC50 under setting [1] of 1.11 µM. For the same compound, the concentration for half-maximal inhibition (IC50) under setting [4] was found to be 1.11 µM. Besides, the inhibition at 0.1 µM under setting [5] was 1.6%. The inhibition at 1 µM under setting [2] was 49.8%. The inhibition at 0.1 µM under setting [6] turned out to be 1.6%. Further, under setting [3], the inhibition at 1 µM was found to be 49.8%.
Turning to `O=C(O)c1cc(-c2ccccc2O[C@@H]2O[C@H](CO)[C@H](O)[C@H](O)[C@H]2O)cc([N+](=O)[O-])c1` [AM2050, 5-nitro-2′-(((2S,3R,4S,5R,6R)-3,4,5-trihydroxy-6-(hydroxymethyl)tetrahydro-2H-pyran-2-yl)oxy)-[1,1′-biphenyl]-3-car oxylic acid], the “potency relative to matched pair Gal/GalNAc derivative” value is 6 fold. For the same compound, half-maximal inhibition under setting [1] (IC50) required 0.28 µM. Besides, the IC50 under setting [4] was 0.418 µM. In addition, the inhibition at 0.1 µM under setting [5] was found to be 7.6%. The inhibition at 1 µM under setting [2] was found to be 68%. Also, the inhibition at 0.1 µM under setting [6] is 7.6%. Under setting [3], the inhibition at 1 µM stood at 68%.
Take `COc1ccc(C(=O)O)cc1-c1ccccc1O[C@@H]1O[C@H](CO)[C@H](O)[C@H](O)[C@H]1NC(C)=O` [AM2051]: under setting [5], the inhibition at 0.1 µM came to 0%. Moreover, the inhibition at 1 µM under setting [2] was 15.9%.
In the case of `CCOC(=O)c1ccc(OC)c(-c2ccccc2O[C@@H]2O[C@H](CO)[C@H](O)[C@H](O)[C@H]2NC(C)=O)c1` [AM2053, ethyl 2′-(((2S,3R,4R,5R,6R)-3-acetamido-4,5-dihydroxy-6-(hydroxymethyl)tetrahydro-2H-pyran-2-yl)oxy)-6-methoxy-[1,1′-biphenyl]-3-carboxylate], the inhibition at 0.1 µM reads like this: under setting [5], 0%; under setting [6], 0%. Besides, the inhibition at 1 µM stood at 13.7% under setting [2] and 13.7% under setting [3].
With `CC(=O)N[C@H]1[C@H](Oc2ccccc2-c2cccc(S(C)(=O)=O)c2)O[C@H](CO)[C@H](O)[C@@H]1O` [AM2059, N-((2S,3R,4R,5R,6R)-4,5-dihydroxy-6-(hydroxymethyl)-2-((3′-(methylsulfonyl)-[1,1′-biphenyl]-2-yl)oxy)tetrahydro-2H-pyran-3-yl)acetamide], the “inhibitory potency” value is on record as “equal or slightly reduced potency”. Further, half-maximal inhibition under setting [1] (IC50) required 0.7 µM. The inhibition at 0.1 µM under setting [5] was determined as 0.1%. The inhibition at 1 µM under setting [2] was 23.3%. For the same compound, the inhibition at 0.1 µM under setting [6] was 0.1%. Further, the inhibition at 1 µM under setting [3] came to 23.3%.
For `CC(=O)Nc1cccc(-c2ccccc2O[C@@H]2O[C@H](CO)[C@H](O)[C@H](O)[C@H]2NC(C)=O)c1` [AM2062, N-(2′-(((2S,3R,4R,5R,6R)-3-acetamido-4,5-dihydroxy-6-(hydroxymethyl)tetrahydro-2H-pyran-2-yl)oxy)-[1,1′-biphenyl]-3-yl)acetamide], the concentration for half-maximal inhibition (IC50) is, setting by setting: under setting [1], 0.31 µM; under setting [4], 0.623 µM. The inhibition at 0.1 µM reads like this: under setting [5], 14.8%; under setting [6], 14.8%. In addition, the inhibition at 1 µM is, setting by setting: under setting [2], 67.9%; under setting [3], 67.9%.
`CC(=O)N[C@H]1[C@H](Oc2ccccc2-c2cccc(CO)c2)O[C@H](CO)[C@H](O)[C@@H]1O` [AM2064, N-((2S,3R,4R,5R,6R)-4,5-dihydroxy-6-(hydroxymethyl)-2-((3′-(hydroxymethyl)-[1,1′-biphenyl]-2-yl)oxy)tetrahydro-2H-pyran-3-yl)acetamide]: the “inhibitory potency” value is “equal or slightly reduced potency”. In addition, under setting [1], the IC50 turned out to be 0.63 µM. For the same compound, under setting [5], the inhibition at 0.1 µM was found to be 2%. The inhibition at 1 µM under setting [2] was found to be 38.9%. Further, under setting [6], the inhibition at 0.1 µM came out at 2%. The inhibition at 1 µM under setting [3] is 38.9%.
